Measured values taken from ChEMBL document CHEMBL4376882, “Photodynamic Therapy for ras-Driven Cancers: Targeting G-Quadruplex RNA Structures with Bifunctional Alkyl-Modified Porphyrins” (J Med Chem, 2020).
Activity calls are given as the source filed them. The calls are words filed in the database; no cut-off is given here.

Experiments:
PANC-1 [1] = test: Induction of apoptosis in human PANC1 cells assessed as necrotic cells at 15 nM and photoirradiated at 7.2 J/cm2 measured after 6 to 24 hrs in presence of NAC by annexin-V-propidium iodide staining based FACScalibur flow cytometry analysis (reference value: 1 %); assay type: functional
[2] = Induction of ROS-mediated […] labelled 20-mer utr-c stem-loop RNA (unknown origin) degradation at 0.6 uM incubated for 30 mins followed by photoirradiation for 15 to 30 mins by PAGE analysis
PANC-1 [3] = test: Induction of apoptosis in human PANC1 cells assessed as viable cells at 10 nM and photoirradiated at 7.2 J/cm2 measured after 6 to 24 hrs in presence of NAC by annexin-V-propidium iodide staining based FACScalibur flow cytometry analysis (reference value: 94.5 %); assay type: functional; settings: PANC-1, light or radiation study, read-out: Activity
PANC-1 [4] = test: Induction of apoptosis in human PANC1 cells assessed as viable cells at 15 nM and photoirradiated at 7.2 J/cm2 measured after 6 to 24 hrs in presence of NAC by annexin-V-propidium iodide staining based FACScalibur flow cytometry analysis (reference value: 94.5 %); assay type: functional; settings: PANC-1, light or radiation study, read-out: Activity
PANC-1 [5] = test: (§1) Induction of ROS generation in human PANC1 cells assessed as cleavage of CM-H2DCFDA to CM-H2DCF by intracellular esterase by measuring green fluorescence emission incubated for 16 hrs followed by 7.2J/cm2 photoirradiation and subsequent compound washout measured after 40 mins by CM-H2DCFDA staining-based FACSCalibur flow cytometry; assay type: functional, cell-based
[6] = target: GTPase NRas (Homo sapiens) (UniProt P01111); test: Inhibition of NRAS in human PANC1 cells assessed as downregulation of NRAS expression at 15 nM followed by 7.2 J/cm2 irradiation after 4 hrs by Western blot analysis (reference value: 25 %); assay type: cell-based
Chain of GTPase NRas (Homo sapiens) (P01111 whole entry): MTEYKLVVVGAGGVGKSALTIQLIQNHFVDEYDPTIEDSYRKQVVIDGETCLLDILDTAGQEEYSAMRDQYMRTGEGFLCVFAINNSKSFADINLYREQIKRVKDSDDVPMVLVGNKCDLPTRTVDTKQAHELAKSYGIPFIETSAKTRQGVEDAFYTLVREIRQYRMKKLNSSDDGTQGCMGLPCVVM

PANC-1 [7] = test: Induction of apoptosis in human PANC1 cells assessed as early apoptotic cells at 5 nM and photoirradiated at 7.2 J/cm2 measured after 6 to 24 hrs by annexin-V-propidium iodide staining based FACScalibur flow cytometry analysis (reference value: 4.6 %); assay type: functional
PANC-1 [8] = test: Induction of apoptosis in human PANC1 cells assessed as late apoptotic cells at 15 nM and photoirradiated at 7.2 J/cm2 measured after 6 to 24 hrs by annexin-V-propidium iodide staining based FACScalibur flow cytometry analysis (reference value: 2.7 %); assay type: functional
Quadruplex DNA [9] = test: Binding affinity to human KRAS utr-z RNA g-quadruplex by fluorescence spectroscopy; assay type: nucleic-acid assay
[10] = Drug uptake in human HEK293 cells at 5 uM and 4 degree C after 16 hrs by FACS analysis relative to 37 degree C; assay type: ADME, cell-based; settings: hek293, 16 h
Quadruplex DNA [11] = test: Induction of ROS-mediated […] labeled Ras RNA g-quadruplex (unknown origin) degradation at 0.6 uM incubated for 30 mins in presence of NAC followed by photoirradiation for 15 to 30 mins by PAGE analysis; assay type: nucleic-acid assay
Quadruplex DNA [12] = test: Binding affinity to NRAS RNA g-quadruplex (unknown origin) by fluorescence spectroscopy; assay type: nucleic-acid assay
PANC-1 [13] = test: Antitumor activity against human PANC1 cells xenografted in SCID mouse assessed as reduction in tumor growth at 3 mg/kg administered intratumorally measured after 14 days by micrometer caliper method; assay type: functional, organism-based
Quadruplex DNA [14] = test: Binding affinity to human KRAS utr-z RNA g-quadruplex at 40 degree C by SPR analysis; assay type: nucleic-acid assay
HEK293 = test: Cytotoxicity against human HEK293 cells assessed as reduction in metabolic activity after 24 to 72 hrs in dark followed by photoirradiation in presence of NADH by resazurin assay; assay type: ADME, cell-based
Quadruplex DNA [15] = test: Binding affinity to human KRAS utr-1 RNA g-quadruplex by fluorescence spectroscopy; assay type: nucleic-acid assay
Quadruplex DNA [16] = test: Binding affinity to human KRAS utr-z RNA g-quadruplex assessed as emission spectra at absorbance 650 to 715 nm 1 uM by fluorescence titration method; assay type: nucleic-acid assay
PANC-1 [17] = test: Induction of apoptosis in human PANC1 cells assessed as early apoptotic cells at 10 nM and photoirradiated at 7.2 J/cm2 measured after 6 to 24 hrs by annexin-V-propidium iodide staining based FACScalibur flow cytometry analysis (reference value: 4.6 %); assay type: functional
[18] = Drug uptake in human PANC1 cells at 5 uM and 4 degree C after 16 hrs by FACS analysis relative to 37 degree C; assay type: ADME, cell-based; settings: panc-1, 16 h
PANC-1 [19] = test: Induction of apoptosis in human PANC1 cells assessed as late apoptotic cells at 10 nM and photoirradiated at 7.2 J/cm2 measured after 6 to 24 hrs in presence of NAC by annexin-V-propidium iodide staining based FACScalibur flow cytometry analysis (reference value: 1.3 %); assay type: functional
[20] = Drug uptake in human PANC1 cells at 5 uM after 2 hrs by FACS analysis; assay type: ADME, cell-based; settings: panc-1, 2 h
[21] = Drug uptake in human PANC1 cells at 5 uM after 16 hrs by FACS analysis; assay type: ADME, cell-based; settings: panc-1, 16 h
[22] = Drug uptake in human PANC1 cells in presence of dynamin-inhibitor dynasore; assay type: ADME, cell-based; settings: panc-1
PANC-1 [23] = test: Cytotoxicity against human PANC1 cells assessed as reduction in metabolic activity at 20 nM after 24 to 72 hrs in dark followed by photoirradiation in presence of NADH and NAC by resazurin assay; assay type: functional, cell-based
PANC-1 [24] = test: Cytotoxicity against human PANC1 cells assessed as reduction in metabolic activity after 48 hrs in dark followed by photoirradiation in presence of NADH by resazurin assay; assay type: functional, cell-based; settings: PANC-1, light or radiation study
Quadruplex DNA [25] = test: Binding affinity to human KRAS utr-c RNA g-quadruplex by fluorescence spectroscopy; assay type: nucleic-acid assay
[26] = target: GTPase NRas (Homo sapiens) (UniProt P01111); test: Inhibition of NRAS in human PANC1 cells assessed as decrease in NRAS mRNA level at 15 nM followed by 7.2 J/cm2 irradiation after 4 hrs by qRT-PCR analysis; assay type: cell-based
PANC-1 [27] = test: Induction of apoptosis in human PANC1 cells assessed as necrotic cells at 5 nM and photoirradiated at 7.2 J/cm2 measured after 6 to 24 hrs in presence of NAC by annexin-V-propidium iodide staining based FACScalibur flow cytometry analysis (reference value: 1 %); assay type: functional
PANC-1 [28] = test: as §1, with “cells” for “cells assessed as”, “hrs in presence of NAC” for “hrs”; assay type: functional, cell-based
[29] = target: GTPase KRas (Homo sapiens) (UniProt P01116); test: Inhibition of KRAS in human PANC1 cells assessed as decrease in KRAS mRNA level at 15 nM followed by 7.2 J/cm2 irradiation after 4 hrs by qRT-PCR analysis; assay type: cell-based
Chain of GTPase KRas (Homo sapiens) (P01116 whole entry, looked up): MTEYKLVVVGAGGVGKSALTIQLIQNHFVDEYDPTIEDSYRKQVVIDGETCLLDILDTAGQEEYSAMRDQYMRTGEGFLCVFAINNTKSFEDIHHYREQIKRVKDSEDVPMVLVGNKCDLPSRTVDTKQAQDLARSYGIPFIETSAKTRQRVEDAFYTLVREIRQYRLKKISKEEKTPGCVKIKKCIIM

PANC-1 [30] = test: Induction of apoptosis in human PANC1 cells assessed as early apoptotic cells at 15 nM and photoirradiated at 7.2 J/cm2 measured after 6 to 24 hrs by annexin-V-propidium iodide staining based FACScalibur flow cytometry analysis (reference value: 4.6 %); assay type: functional
PANC-1 [31] = test: Photodynamic antitumor activity against human PANC1 cells xenografted in SCID mouse assessed as reduction in tumor growth at 3 mg/kg administered intratumorally after 2 hrs photoirradiated by diode laser at 193 J/cm2 by micrometer caliper method; assay type: functional, organism-based

In the case of `CCCCCCCCCCCCCC[n+]1ccc(-c2c3nc(c(-c4cc[n+](C)cc4)c4ccc([nH]4)c(-c4cc[n+](C)cc4)c4nc(c(-c5cc[n+](C)cc5)c5ccc2[nH]5)C=C4)C=C3)cc1.[I-].[I-].[I-].[I-]`, the Activity (PANC-1 [1]) is reported as 1.7%, the Activity [2] is reported as “inactive” and the viability at 0.01 µM (PANC-1 [3]) is reported as 90.9%. For the same compound, the viability at 0.015 µM (PANC-1 [4]) was 89.4%, the Activity (PANC-1 [5]) was “Dose-dependent effect” and the inhibition [6] was 50%. The Activity (PANC-1 [7]) was 5.1%, the Activity (PANC-1 [8]) was 20.8% and the Kd (Quadruplex DNA [9]) was 0.219 µM. For the same compound, the Drug uptake [10] was “Active”, the Activity (Quadruplex DNA [11]) was “inactive” and the Kd (Quadruplex DNA [12]) was 0.107 µM. For the same compound, the Activity (PANC-1 [13]) was “inactive”, the Kd (Quadruplex DNA [14]) was 0.082 to 0.202 µM and the Activity (HEK293) was “Non-Toxic”. For the same compound, the Kd (Quadruplex DNA [15]) was 0.236 µM, the Activity (Quadruplex DNA [16]) was “Active” and the Activity (PANC-1 [17]) was 4.8%. For the same compound, the Drug uptake [18] was 24%, the Activity (PANC-1 [19]) was 3.1% and the Drug uptake [20] was “Active”. For the same compound, the Drug uptake [21] was “Active”, the Drug uptake [22] was “Not Active” and the Activity (PANC-1 [23]) was “inactive”. The EC50 (PANC-1 [24]) was 0.0137 µM, the Kd (Quadruplex DNA [25]) was 0.235 µM and the inhibition [26] was “Active”. For the same compound, the Activity (PANC-1 [27]) was 1.2%, the Activity (PANC-1 [28]) was “inactive” and the inhibition [29] was “Active”. For the same compound, the Activity (PANC-1 [30]) was 4.5% and the Activity (PANC-1 [31]) was “Active”.
